The target of data set [1] is T1, human TREK-1 (hTREK-1) (Homo sapiens, UniProt O95069).
T1 construct: expressed in transfected cells
T1 sequence (O95069 1-426): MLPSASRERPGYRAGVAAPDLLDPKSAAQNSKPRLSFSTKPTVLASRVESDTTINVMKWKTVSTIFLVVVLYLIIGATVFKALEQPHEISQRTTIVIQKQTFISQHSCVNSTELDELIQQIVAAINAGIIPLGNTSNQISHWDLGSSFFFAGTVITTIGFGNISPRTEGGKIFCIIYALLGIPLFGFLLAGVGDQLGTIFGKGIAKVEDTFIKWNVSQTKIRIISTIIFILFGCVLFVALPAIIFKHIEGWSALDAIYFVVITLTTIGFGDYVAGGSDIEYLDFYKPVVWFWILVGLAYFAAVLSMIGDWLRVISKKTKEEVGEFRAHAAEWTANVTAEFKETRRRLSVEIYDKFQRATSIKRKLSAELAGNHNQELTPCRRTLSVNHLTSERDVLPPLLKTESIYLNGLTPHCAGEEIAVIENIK
Nature of the data set: TREK-1 thallium flux assay (CHO-K1 cells stably expressing hTREK-1). The data set is classed as cell-based. The following applies: human TREK-1, thallium flux; read-out: h TREK-1 Tl+ IC50. On the procedure:
Procedures for Biological Experiments
TREK-1 Thallium flux assay
CHO-K1 cells stably expressing hTREK-1 were cultured in T225 flask. The cells were loaded with FluxOR dye and plated in 384 well plate at the experiment day. Test compounds or control compound (tert-butyl (3-((4-(benzyloxy)-2-methylphenyl)carbamoyl)-4-chlorophenyl)carbamate) or 0.3% DMSO (vehicle control) were added directly to the cell plates and incubated for 10 min, and then treated with thallium stimulus buffer to initiate thallium flux.
To measure the efficacy and potency of test compounds, the change in fluorescence intensity (ΔRatio) and % inhibition were calculated using the following equations:
ΔRatio = (fluorescence intensity at 25 seconds after thallium addition)/(average of fluorescent intensity before thallium addition)
(§1) 0.3% DMSO - ΔRatio of 10 μM control compound)}x100
(§2) % inhibition vs compound concentration were plotted in XLfit and calculated IC50.
CHO-K1 cells stably expressing human TREK-1 (hTREK-1) were cultured in T225 flask.
The cells were loaded with FluxOR dye and plated in 384 well plate at the experiment day. Test compounds or control compound (tert-butyl (3-((4-(benzyloxy)-2-methylphenyl)carbamoyl)-4-chlorophenyl)carbamate) or 0.3% DMSO (vehicle control) which were prepared on separate plates were added to the cell plates and incubated for 10 min, and then the cells with test compounds or […]
chlorophenyl)carbamate) or 0.3% DMSO (vehicle control) were treated with thallium stimulus buffer to initiate thallium flux. To measure the efficacy and potency of test compounds, the change in fluorescence intensity (ΔRatio) and % inhibition were calculated using the following equations: […]

The target of data set [2] is T2, human TREK-2 (hTREK-2) (Homo sapiens, UniProt P57789).
T2 construct: expressed in transfected cells
T2 sequence (P57789 1-538): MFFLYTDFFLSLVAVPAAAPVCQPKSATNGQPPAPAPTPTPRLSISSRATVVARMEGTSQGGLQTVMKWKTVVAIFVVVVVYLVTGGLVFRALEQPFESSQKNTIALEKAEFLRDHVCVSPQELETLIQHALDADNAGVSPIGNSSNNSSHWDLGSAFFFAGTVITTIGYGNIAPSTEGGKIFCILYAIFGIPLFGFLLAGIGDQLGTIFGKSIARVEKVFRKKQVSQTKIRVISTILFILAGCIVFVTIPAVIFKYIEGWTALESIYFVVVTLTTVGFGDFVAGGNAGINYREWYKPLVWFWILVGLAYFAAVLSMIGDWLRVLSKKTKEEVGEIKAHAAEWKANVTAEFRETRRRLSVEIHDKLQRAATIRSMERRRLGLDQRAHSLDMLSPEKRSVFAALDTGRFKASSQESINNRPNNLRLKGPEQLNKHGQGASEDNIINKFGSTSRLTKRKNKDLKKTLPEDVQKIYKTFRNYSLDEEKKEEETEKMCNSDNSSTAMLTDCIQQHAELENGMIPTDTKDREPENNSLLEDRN
As to the kind of experiment: TREK-2 thallium flux assay (HEK293 cells stably expressing hTREK-2). The data set is classed as cell-based. To be noted: human TREK-2, thallium flux; read-out: h TREK-2 Tl+ IC50. The procedure: as §1, §2
TREK-2 Thallium flux assay
HEK293 cells stably expressing human TREK-2 (hTREK-2) are plated in 384-well plates, cultured overnight, loaded with Thallos dye the following day. Test compounds or control compound (tert-butyl (3-((4-(benzyloxy)-2-methylphenyl)carbamoyl)-4-chlorophenyl)carbamate) or 0.3% DMSO (vehicle control) which are prepared on separate plates are added to the cell plates and incubated for 10 min, and then the cells were treated with thallium stimulus buffer to initiate […]
To measure the efficacy and potency of test compounds, the change in fluorescence intensity (ΔRatio) and % inhibition are calculated using the following equations: […]

The nature of data set [3]: Plasma protein binding, rat. The data set is classed as in vitro ADME. To be noted: rat, plasma, pH 7.4, rat plasma, bound; read-out: PPB rat (converted). The procedure: Plasma protein binding and Brain homogenate binding: Determination of fraction unbound (f u) in plasma was conducted in vitro via equilibrium dialysis using HTDialysis (HTD) membrane plates. The top half of the plate was filled with 100 uL of Dubelco’s Phosphate Buffered Saline, pH 7.4 (DPBS). Compounds were diluted into plasma from each species (5 µM final concentration), which was aliquoted in triplicate to the ‘bottom half’ of the prepared HTD plate wells. The HTD plate was sealed and incubated for 6 hours at 37 °C. Following incubation, each well (both top and bottom halves) were transferred (20 µL) to the corresponding wells of a 96-shallow-well (V-bottom) plate. The daughter plates were then matrix-matched (DPBS side wells received equal volume of plasma, and plasma side wells received equal volume of DPBS), and extraction solution (120 µL; acetonitrile containing 50 nM carbamazepine as IS) was added to all wells of both daughter plates to precipitate protein and extract test article. The plates were then sealed and centrifuged (3500 rcf) for 10 minutes at ambient temperature. Supernatant (60 µL) from each well of the daughter plates was then transferred to the corresponding wells of new daughter plates (96-shallow-well, V bottom) containing water (Milli-Q, 60 µL/well), and the plates were sealed in preparation for LC-MS/MS analysis (see LC-MS/MS analysis method below).
The unbound fraction (f u) was calculated following the equation below, and mean values for each species were calculated from 3 replicates. […]
Fraction unbound for both plasma and brain samples was determined using Equation 4.
Equation 4 Determination of fraction unbound in plasma. […]

The nature of data set [4]: Liver microsome intrinsic clearance, human. The data set is classed as in vitro ADME. The following applies: pH 7.4; human liver microsomes, predicted intrinsic clearance; read-out: LMS CLINT human. The procedure:
(§3) were incubated in 100 mM potassium phosphate pH 7.4 buffer with 3 mM MgCl2 at 37 °C with constant shaking. After a 5 min preincubation, the reaction was initiated by the addition of NADPH (1 mM). At selected time intervals (0, 3, 7, 15, 25, and 45 min), aliquots were taken and subsequently placed into a 96-well plate containing cold acetonitrile with internal standard (50 ng/mL carbamazepine). Plates were then centrifuged at 3000 rcf (4 °C) for 10 min, and the supernatant was transferred to a separate 96-well plate and diluted 1:1 with water for LC/MS/MS analysis. The in vitro half-life ( 1/2, min, Eq. 1), intrinsic clearance (CLint, mL/min/kg, Eq. 2), and subsequent predicted hepatic clearance (CLhep, mL/min/kg, Eq. 3) was determined employing the […]
(§4) where k represents the slope from linear regression analysis of the natural log percent remaining of a test compound as a function of incubation time […]
(§5) (2) CLint = in vitroT x mg microsomes x gram liver x kg body wt ascale-up factors: of 20 (human) or 45 (rat) […]
(§6) where Qh (hepatic blood flow, mL/min/kg) is 21 (human) or 70 (rat).
(§7) LC/MS/MS Bioanalysis of Samples from Plasma Protein Binding and Intrinsic Clearance […]
(§8) Samples were analyzed on a Thermo Electron TSQ Quantum Ultra triple quad mass spectrometer (San Jose, CA) via electrospray ionization (ESI) with two Themo Electron Accella pumps (San Jose, CA), and a Leap Technologies CTC PAL autosampler (Carrboro, NC). Analytes were […]

Data set [5] in a line: Liver microsome intrinsic clearance, rat. The data set is classed as in vitro ADME. To be noted: pH 7.4; rat liver microsomes, predicted intrinsic clearance; read-out: LMS CLINT rat. On the procedure: as §3, §4, §5, §6, §7, §8
Data set [6] in a line: ChromatoLogD. The format is physicochemical.
Data set [7] can be described thus: Liver microsome intrinsic clearance, mouse. To be noted: pH 7.4; mouse liver microsomes, predicted intrinsic clearance; read-out: LMS CLINT mouse. The format is in vitro ADME.

The values below come from article PMC12621189, “Optimization of Selective and CNS Penetrant Alkyne-Based TREK Inhibitors: The Discovery and Characterization of ONO-9517601 (VU6022856) and ONO-7927846 (VU6024391)” (Journal of Medicinal Chemistry, 2025).

pIC50: −log10 of the molar value.

For `CC(=O)N1CC[C@@H](n2ncc(Cl)c2C(=O)Nc2ncc(C#Cc3ccccc3)cc2C)[C@@H](F)C1` [Compound 16c, 1-((3S,4R)-1-Acetyl-3-fluoropiperidin-4-yl)-4-chloro-N-(3-methyl-5-(phenylethynyl)pyridin-2-yl)-1H-pyrazole-5-carboxamide], the negative-log IC50 (pIC50) in data set [1] is 6.80; in data set [2] it was 6.28.
With `CC(=O)N1CC[C@H](n2ncc(Cl)c2C(=O)Nc2ncc(C#Cc3ccccc3)cc2F)[C@H](F)C1` [Compound 16e, 1-((3R,4S)-1-Acetyl-3-fluoropiperidin-4-yl)-4-chloro-N-(3-fluoro-5-(phenylethynyl)pyridin-2-yl)-1H-pyrazole-5-carboxamide], the pIC50 was 7.15 in data set [1] and 6.48 in data set [2].
With `Cc1cc(C#Cc2ccccc2)cnc1NC(=O)c1c(Cl)cnn1CC1COCCO1` (centres unmarked) [Compound 8, 1-((1,4-Dioxan-2-yl)methyl)-4-chloro-N-(3-methyl-5-(phenylethynyl)pyridin-2-yl)-1H-pyrazole-5-carboxamide], in data set [1], the negative-log IC50 (pIC50) was 6.17.
Consider `Cc1cc(C#Cc2ccccc2)cnc1NC(=O)c1c(Cl)cnn1-c1ccc2c(cnn2C)c1` [Compound 15c, 4-Chloro-1-(1-methyl-1H-indazol-5-yl)-N-(3-methyl-5-(phenylethynyl)pyridin-2-yl)-1H-pyrazole-5-carboxamide], for which the negative logarithm of the IC50 (pIC50) in data set [1] was 7.08. The fraction unbound at 6 h, 5 µM in data set [3] is 0.002.
For `CC(=O)N1CC[C@@H](n2ncc(Cl)c2C(=O)Nc2ncc(C#Cc3ccccc3)cc2C)[C@H](F)C1` [Compound 16b, 1-((3R,4R)-1-Acetyl-3-fluoropiperidin-4-yl)-4-chloro-N-(3-methyl-5-(phenylethynyl)pyridin-2-yl)-1H-pyrazole-5-carboxamide], the results for the pIC50 in data set [1] and in data set [2] were 7.02 and 6.54, respectively. The CLint scaled at 1 µM was 13 mL/min/kg in data set [4] and 94 mL/min/kg in data set [5].
For the compound `CC(=O)N1CC[C@H](n2ncc(Cl)c2C(=O)Nc2ncc(C#Cc3ccccc3)cc2F)[C@@H](F)C1` [Compound 16f, 1-((3S,4S)-1-Acetyl-3-fluoropiperidin-4-yl)-4-chloro-N-(3-fluoro-5-(phenylethynyl)pyridin-2-yl)-1H-pyrazole-5-carboxamide], the negative logarithm of the IC50 (pIC50) in data set [2] was 6.33.
Regarding `Cc1cc(C#Cc2ccccc2)cnc1NC(=O)c1c(Cl)cnn1CC1CCOCC1` [Compound 14b, 4-Chloro-N-(3-methyl-5-(phenylethynyl)pyridin-2-yl)-1-((tetrahydro-2H-pyran-4-yl)methyl)-1H-pyrazole-5-carboxamide], the negative-log IC50 (pIC50) in data set [1] was 6.70.
As for `CC(=O)N1CCC(n2ncc(Cl)c2C(=O)Nc2ncc(C#Cc3ccccc3)cc2C)C(F)C1` (centres unmarked) [Compound 16a, 1-(1-Acetyl-3-fluoropiperidin-4-yl)-4-chloro-N-(3-methyl-5-(phenylethynyl)pyridin-2-yl)-1H-pyrazole-5-carboxamide], the pIC50 is 7.01 in data set [1] and 6.55 in data set [2].
With `Cc1cc(C#Cc2ccccc2)cnc1NC(=O)c1cc(-c2noc(C3CCOC3)n2)ccc1Cl` (centres unmarked) [Compound 13b, 2-Chloro-N-(3-methyl-5-(phenylethynyl)pyridin-2-yl)-5-(5-(tetrahydrofuran-3-yl)-1,2,4-oxadiazol-3-yl)benzamide], the negative-log IC50 (pIC50) in data set [1] is 7.32. Moreover, in data set [6], the chromatographic logD was 5.01. For the same compound, the CLint scaled at 1 µM is 71 mL/min/kg in data set [4] and 68 mL/min/kg in data set [7].
As for `CC(=O)N1C[C@H]2C[C@H](n3ncc(Cl)c3C(=O)Nc3ncc(C#Cc4ccccc4)cc3C)C[C@H]2C1` [Compound 15g, 1-((3aR,5s,6aS)-2-Acetyloctahydrocyclopenta[c]pyrrol-5-yl)-4-chloro-N-(3-methyl-5-(phenylethynyl)pyridin-2-yl)-1H-pyrazole-5-carboxamide], the fraction unbound at 6 h, 5 µM in data set [3] was 0.009.
Take `Cc1cc(C#Cc2ccccc2)cnc1NC(=O)c1cc(NC(=O)OC(C)(C)C)ccc1Cl` [Compound 13e]: in data set [1], the pIC50 was 6.85. Further, the chromatographic logD in data set [6] came out at 5.15.
Regarding `CC(=O)N1CC[C@H](n2ncc(Cl)c2C(=O)Nc2ncc(C#Cc3ccccc3)cc2C)[C@H](F)C1` [Compound 16d, 1-((3R,4S)-1-Acetyl-3-fluoropiperidin-4-yl)-4-chloro-N-(3-methyl-5-(phenylethynyl)pyridin-2-yl)-1H-pyrazole-5-carboxamide], the pIC50 in data set [2] was 6.28.
